Values joined by “and” are separate entries in the source; they are usually repeats but may differ in a detail not shown here. Identical values can stand only once. “Also recorded” adds a separate entry of the source.
How the values were obtained:
[1] = system: T. b. brucei GVR35; parameters: method as in PMID 19620327; settings: oral administration; cited from earlier work
[2] = Pharmacokinetics in infected vervet monkeys (first stage HAT); assay type: in vivo, vervet monkey; settings: monkey, plasma, po, prodrug in plasma post-LDD, all oral DB868 regimens; infected; 0.04 days = 1 h; read-out: Tmax (majority, 4/6 monkeys) (converted)
[3] = system: T. b. rhodesiense KETRI 2537; test: Efficacy in first stage HAT vervet monkey model; assay type: in vivo; settings: for time to clear parasites from the blood: after the 1st drug dose
Protocol: Monkeys that were deemed as treatment failures/relapses or developed severe adverse clinical signs as defined in the protocol (e.g., inability or reluctance to perch, less than ¼ of normal daily feed intake for 2–3 consecutive days) were immediately withdrawn from the study and humanely euthanized for post-mortem examination. These monkeys were euthanized by intravenous administration of 20% (w/v) pentobarbitone sodium solution (150 mg/kg body weight; Euthatal; Rhône-Mérieux, United Kingdom).

[4] = parameters: method as in earlier work; settings: cited from earlier work
[5] = Safety (overt toxicity, haematology, clinical chemistry) in uninfected vervet monkeys; settings: for peak plasma urea relative to baseline: p<0.05; for highest post-treatment mean ALT: plasma
[6] = system: T. b. rhodesiense STIB900; parameters: method as in PMID 19620327; settings: oral administration; cited from earlier work
[7] = Pharmacokinetics in uninfected vervet monkeys; settings: uninfected; for concentration at 24 h / concentration at 4 h: both, monkey, po; for concentration at 24 h / concentration at 4 h / C24 h: plasma; for concentration at 24 h: C24 h; for concentration at 4 h: geometric mean C4 h, n = 4
[8] = Metabolism of DB868 in vervet monkey liver microsomes; assay type: in vitro ADME; settings: 10 µM, 0.5 mg/mL microsomes, 1 mM NADPH, pH 7.4, up to 120 min
Protocol: DB868 metabolism was studied in male vervet monkey liver microsomes (custom-prepared by XenoTech, LLC, Lenexa, KS, USA) by adapting a previously published method. Briefly, incubation mixtures contained 10 µM DB868, 0.5 mg/mL monkey liver microsomes, and 3.3 mM MgCl2 in 100 mM phosphate buffer (pH 7.4). Reactions were initiated by the addition of NADPH (1 mM final concentration). Control incubations were carried out without NADPH, DB868, or liver microsomes. Aliquots (100 µL) of the reaction mixtures were removed at 0, 5, 10, 15, 30, 60 and 120 min and mixed with 100 µL of ice-cold acetonitrile. After centrifugation to pellet precipitated proteins, the supernatants were analyzed by HPLC/UV and fluorescence using the method previously described for pafuramidine (DB289) and furamidine (DB75). Metabolite identification was performed by comparing retention times to those of synthetic standards for M1 (DB1679), M2 (DB840), M3 (DB1712), and DB829. DB868 and its metabolites were quantified using a calibration curve (0.1–10 µM) generated using synthetic standards.

[9] = system: T. b. brucei s427 trypanosomes; parameters: method as in PMID 21402852; settings: 3.2 µM; cited from earlier work
[10] = oral 3 mg/kg×7 days, monkeys 638, 643
[11] = oral 10 mg/kg/day×10 days, 1–2 days post-LDD
[12] = after final oral dose of DB868 30 mg/kg×10 days, individual monkeys, 30 mg/kg

CONC(=N)c1ccc(-c2ccc(-c3ccc(C(=N)NOC)cn3)o2)nc1 [DB868, 2,5-bis[5-(N-methoxyamidino)-2-pyridyl]furan]
curative [1]: 100% | Tmax [2]: 57.6 min | day of dosing on which parasitologically negative ([3]; oral 3 mg/kg/day for 7 days, monkey 638): 6 day | time at which parasitologically negative ([3]; oral 3 mg/kg/day for 7 days, monkey 643): 3 days post-LDD | Trypanosomes blood/CSF at EoT ([3]; oral 3 mg/kg×7 days from 7 DPI, monkeys 638, 643): Neg | Final efficacy assesment [3, 10]: Cured | Provisional efficacy at 100 days post-treatment [3, 10]: Cured | time at which consistently parasitologically negative ([3]; oral 10 mg/kg/day for 7 days, monkey 675): 7 days post-LDD | day of treatment on which parasitologically negative ([3]; oral 10 mg/kg/day for 7 days, monkey 691): 6 day | Trypanosomes blood/CSF at EoT ([3]; oral 10 mg/kg×7 days from 7 DPI, monkeys 675, 691): Neg | Provisional efficacy at 100 days post-treatment ([3]; oral 10 mg/kg×7 days, monkeys 675, 691): Cured | day of drug administration by which trypanosomes were undetectable in blood ([3]; oral 20 mg/kg/day for 5 days, all three monkeys): ≤ 4 days | Trypanosomes blood/CSF at EoT ([3]; oral 20 mg/kg×5 days from 7 DPI, monkeys 585, 658, 686, Neg = negative, Pos = positive): Neg | time to clear parasites from the blood ([3]; oral, '30 mg/kg group'): 2 to 5 days | time to clearance of trypanosomes from peripheral blood ([3]; oral, after the 1st dose, depending on the dose): 2 to 14 days | cure of infected monkeys ([3]; oral, all three regimens (3 mg/kg/day×7, 10 mg/kg/day×7, 20 mg/kg/day×5 days), treatment from 7 DPI): All infected monkeys were cured | dose required to achieve complete cure ([3]; oral, for 7 days, first stage HAT monkey model): 3 mg/kg | time to clear parasites from the blood ([3]; oral, lower dose regimen groups (3 and 10 mg/kg)): 6 to 14 days | curative cumulative dose, fold lower than the maximum tolerated dose ([3]; oral, 21 mg/kg vs 300 mg/kg cumulative): 14 fold | increase in ALT compared to untreated rats ([4]; female Sprague-Dawley rats, oral 25 mg/kg/day for 3 weeks): less than 2 fold | effect on KIM-1 ([4]; oral 12 mg/kg/day×28 days, entire 4-month observation period): no effect | transient increase of plasma urea concentrations ([5]; both dose groups, 1–2 days after the last drug dose): 2–3 fold | adverse clinical signs ([5]; oral 10 mg/kg/day for 10 days, uninfected, n = 4): did not exhibit any adverse clinical signs | BUN equivalent of peak mean urea [5, 11]: 35.9 mg/dL | mean creatinine concentration [5, 11]: 72.3 µmol/L | mean creatinine concentration (equivalent) [5, 11]: 0.8 mg/dL | peak mean urea concentration [5, 11]: 12.8 mmol/L | peak plasma urea relative to baseline [5, 11]: 2.1 fold | maximum decline of mean body weight from baseline ([5]; oral 10 mg/kg/day×10 days, baseline 3.2 kg±0.5): 6.2% | highest post-treatment mean ALT relative to second baseline sample ([5]; oral 10 mg/kg/day×10 days, p = 0.71): 2.8 fold | highest post-treatment mean ALT ([5]; oral 10 mg/kg/day×10 days): 31.3 IU/L | overt toxicity ([5]; oral 30 mg/kg/day for 10 days (cumulative 300 mg/kg), uninfected, two of four monkeys: excess mucous in stool, transient inappetance): mild signs of toxicity; also recorded: No significant overt toxicity | peak plasma urea relative to baseline ([5]; oral 30 mg/kg/day×10 days, 1–2 days post-LDD): 2.7 fold | maximum decline of mean body weight from baseline ([5]; oral 30 mg/kg/day×10 days, baseline 3.1 kg±0.3): 6.5% | mean white blood cell count, transient increase over baseline post-LDD ([5]; oral 30 mg/kg/day×10 days, p = 0.05, returned to baseline after 24 h, judged not drug-related): 1.5 fold | highest post-treatment mean ALT relative to second baseline sample ([5]; oral 30 mg/kg/day×10 days, p = 0.37): 1.3 fold | highest post-treatment mean ALT ([5]; oral 30 mg/kg/day×10 days): 20.5 IU/L | post-dosing variations of mean plasma creatinine ([5]; oral 10 or 30 mg/kg/day×10 days, not statistically significant (p>0.05)): minimal | mean AST and total and direct bilirubin levels versus baseline ([5]; oral 10 or 30 mg/kg/day×10 days, p>0.05): not statistically different from baseline values | gastrointestinal toxicity (stool, faecal occult blood tests) ([5]; oral 10 or 30 mg/kg/day×10 days, uninfected): no notable gastrointestinal toxicity occurred | overall tolerability ([5]; two oral regimens, 10 and 30 mg/kg/day for 10 days, uninfected): well tolerated | haematological parameters versus baseline ([5]; two treatment groups, 10 and 30 mg/kg/day×10 days, uninfected): did not vary significantly from baseline | curative [6]: 100% | AUC0-∞ [7, 12]: 200 nmol·days/L and 540 nmol·days/L and 260 nmol·days/L and 180 nmol·days/L | AUClast [7, 12]: 190 nmol·days/L and 530 nmol·days/L and 210 nmol·days/L and 170 nmol·days/L | t1/2 (terminal elimination half-life) [7, 12]: 0.4 day and 1 day (2×) and 1.3 day | concentration at 24 h ([7]; 10 mg/kg, 24 h after final oral dose of DB868 10 mg/kg×10 days, individual monkeys, BLQ = below limit of quantitation): 6 nM | concentration at 4 h ([7]; 10 mg/kg/day, oral DB868 10 mg/kg/day×10 days): 89 nM | concentration at 24 h ([7]; 30 mg/kg, 24 h after final oral dose of DB868 30 mg/kg×10 days, individual monkeys): 66 nM | concentration at 4 h ([7]; 30 mg/kg/day, oral DB868 30 mg/kg/day×10 days): 466 nM | time for plasma concentration to decline below the limit of detection ([7]; oral DB868 10 mg/kg/day×10 days): less than 1 day post-LDD | time for plasma concentration to decline below the limit of detection ([7]; oral DB868 30 mg/kg/day×10 days): 1–2 days post-LDD | geometric mean C4 h, 30 mg/kg group relative to 10 mg/kg group ([7]; oral DB868×10 days): 5.2 fold | C4 h ([7]; plasma concentration at 4 h after final (10th) oral dose of DB868 10 mg/kg×10 days, individual monkeys 643, 659, 675, 677, 10 mg/kg): 50 nM and 130 nM and 39 nM and 250 nM | C4 h ([7]; plasma concentration at 4 h after final (10th) oral dose of DB868 30 mg/kg×10 days, individual monkeys 546, 567, 668, 679, 30 mg/kg): 330 nM and 1600 nM and 280 nM and 320 nM | C24 h ([7]; 24 h after final oral dose of DB868 10 mg/kg×10 days, individual monkeys, BLQ = below limit of quantitation, 10 mg/kg): BLQ | C24 h ([7]; 24 h after final oral dose of DB868 30 mg/kg×10 days, individual monkeys, 30 mg/kg): 38 nM and 47 nM and 35 nM | metabolites formed [8]: metabolized in male vervet monkey liver microsomes to M1 (DB1679), M2 (DB840), M3 (DB1712), M4, and the active compound DB829

N=C(N)c1ccc(OCCCCCOc2ccc(C(=N)N)cc2)cc1 [Pentamidine, reference compound]
Trypanosomes blood/CSF at EoT ([3]; intramuscular 4 mg/kg×7 days from 7 DPI, monkeys 651, 541, 672): Pos and Neg | Final efficacy assesment ([3]; intramuscular 4 mg/kg×7 days, monkeys 651, 541, 672): Not cured; also recorded: Cured | time to clearance of trypanosomes from peripheral blood ([3]; monkey, in vivo, im, 4 mg/kg): 2 days

N=C(N)c1ccc(-c2ccc(-c3ccc(C(=N)N)cc3)o2)cc1 [furamidine, 2,5-bis(4-amidinophenyl)furan, reference compound]
exposure required to kill trypanosomes in culture [9]: 1 h
